Experimental data as given in patent publication US20250154201A1, “PEPTIDE BINDING TO MESOTHELIN, AND USE THEREOF” (KYUNGPOOK NATIONAL UNIVERSITY INDUSTRY-ACADEMIC COOPERATION …, priority 2022, published 2025).

How the values were obtained:
[1] = test system: AsPC-1 tumor; assay: tumor homing of peptides in mice; type: in vivo, nude mice; conditions: TAMRA-labeled, intravenous, 6 hours circulation
Protocol: Pancreatic cancer cell line AsPC-1 cells (1×10^7 cells) were implanted under the skin of nude mice, left until the tumor size reaches about 100 mm^3, and then intravenously injected with 100 μl of 1 mM peptides labeled with a TAMRA fluorescence reagent, followed by circulation for 6 hours. Tumors and organs (liver, lung, and kidney) were separated and treated with paraformaldehyde for fixation and preparation of cryosections. The prepared cryosections were observed under a fluorescence microscope.
Pancreatic cancer cell line AsPC-1 cells (1×10^7 cells) were implanted under
the skin of nude mice, left until the tumor size reached about 100 mm^3, and then intravenously injected with MSLN-pep labeled with the TAMRA fluorescence reagent and control peptide (Ctrl-pep), followed by circulation for 6 hours. The tumor and control organs were separated, and cryosections were prepared, followed by observation under a fluorescence microscope.

[2] = test system: pancreatic cancer cell lines PANC-1 and AsPC-1; assay: internalization of FITC-labeled peptides (confocal microscopy); type: cell-based, human; conditions: 25 μM and 50 μM MSLN-pep, 50 uM NSSSVDK; 1 and 2 hours
Protocol: To observe the intracellular distribution of the internalized FITC-labeled peptide MSLN-pep, pancreatic cancer cell lines AsPC-1 and PANC-1 cells (2.5×10^5 cell counts) were dispensed on a 4-well chamber slide. After complete adhesion, the cell culture medium was replaced with a fresh medium containing FITC-labeled peptides (25 μM, 50 μM), […], and the cells were washed with PBS 3 times for 3˜5 minutes, followed by fixation (4% paraformaldehyde; PFA) for 5 minutes. Thereafter, washing with PBS was performed. After staining the nucleus with DAPI and mounting on a glass slide with a fading reagent, internalization of FITC-labeled MSLN-pep was observed under confocal microscopy.

[3] = test system: PANC-1 and AsPC-1 cell lines; assay: analysis of migration (24-transwell); type: cell-based, human; conditions: 24 hours
Protocol: PANC-1 and AsPC-1 cell lines were cultured using DMEM and RPMI-1640 media with 10% FBS added respectively in the upper chamber of 24-transwell at a concentration of 2×10^4 cells per well. After 24 hours, all the media in the upper chamber of 24-transwells were removed and replaced with DMEM and RPMI-1640 media without addition of 10% FBS to inhibit migratability of cell lines, so as to be in a starvation state. After 24 hours, the experimental group was added with 10% FBS in the lower chamber, and the control was added with 0% FBS in the lower chamber to observe migratability. 3% ACN, 200 μM control peptide (Ctrl-pep), MSLN-pep 25. For 50, 100, and 200 μM groups, the media in the upper chamber of 24-Transwell were removed, each drug was treated by concentration, and 10% FBS was treated in the lower chamber. Each group was cultured at 37° C. for 24 hours, and then the cells were photographed (original magnification, ×100) by concentration of each peptide. Cells were stained with crystal violet (0.1%), and the ImageJ, a computer program, was used for quantitative evaluation.
(§1) After pancreatic cancer cell lines PANC-1 and AsPC-1 were cultured in 24-transwells, all cells were starved for 24 hours to inhibit cell growth, and then treatment was performed in divided groups of 10% FBS, 0% FBS, 3% ACN+10% FBS, 200 μM NSSSVDK+10% FBS, 25 μM MSLN-pep+10% FBS, 50 μM MSLN-pep+10% FBS, 100 μM MSLN-pep+10% FBS, and 200 μM MSLN-pep+10% FBS.

[4] = target: mesothelin (Homo sapiens, UniProt Q13421); assay: immunofluorescence binding to HEK-293T cells transiently transfected with mesothelin-GFP plasmid; type: cell-based; set-up: GFP; host or cells: HEK293T; conditions: 10 μM and 25 μM MSLN-pep, 25 μM Ctrl-pep; transfected and untransfected HEK-293T
Sequence of mesothelin (Q13421 with tags, fused parts or gaps): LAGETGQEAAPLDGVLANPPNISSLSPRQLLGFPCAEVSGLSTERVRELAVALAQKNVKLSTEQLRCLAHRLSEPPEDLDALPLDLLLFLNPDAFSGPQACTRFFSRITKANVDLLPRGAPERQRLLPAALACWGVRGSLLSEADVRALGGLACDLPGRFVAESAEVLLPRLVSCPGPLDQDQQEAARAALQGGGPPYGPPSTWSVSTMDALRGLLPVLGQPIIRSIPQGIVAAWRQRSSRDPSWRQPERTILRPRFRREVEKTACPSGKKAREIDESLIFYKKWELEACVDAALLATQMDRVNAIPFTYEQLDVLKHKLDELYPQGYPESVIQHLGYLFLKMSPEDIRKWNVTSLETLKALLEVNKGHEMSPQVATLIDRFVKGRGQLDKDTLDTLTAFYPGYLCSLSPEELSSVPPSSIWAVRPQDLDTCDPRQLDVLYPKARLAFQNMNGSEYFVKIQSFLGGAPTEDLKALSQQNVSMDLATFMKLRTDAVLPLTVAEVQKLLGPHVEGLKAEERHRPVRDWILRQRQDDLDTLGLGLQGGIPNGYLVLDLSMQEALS
Protocol: HEK293T cells were transiently transfected using Lipofectamine 3000 (Invitrogen) in 6-well plates according to the manufacturer's protocol. Prior to transfection, 2×10^5 cells were cultured in 6-well plates for 24 hours. To transfect one well, 7.5 μl of Lipofectamine 3000 reagent was diluted in 250 μl of Opti-MEM (Invitrogen) reagent, followed by a reaction at room temperature for 5 minutes. 5 μg of mesothelin-expressing plasmid pCMV6-AC-GFP vector DNA was diluted in 250 μl of Opti-MEM (Invitrogen) reagent, followed by a reaction at room temperature for 5 minutes. The mixture of two solutions were then mixed and reacted at room temperature for 10 minutes (a total of 500 μl per well). The old medium of the cells was immediately removed, and a 500 μl of DNA-transfection reagent-mixture was added to the cells before transfer to the incubator. After 24 hours of culture, the medium was again replaced with a pre-warmed growth medium containing serum. Culture was performed for 48 hours, and the newly inserted protein was expressed in the cells.
Taken together, it was found via immunofluorescence analysis that MSLN-pep specifically binds to mesothelin.

[5] = test system: PANC-1 and AsPC-1 cell lines; assay: analysis of invasion (Matrigel-coated 24-transwell); type: cell-based, human; conditions: 24 hours
Protocol: PANC-1 and AsPC-1 cell lines were cultured using DMEM and RPMI-1640 media with 10% FBS added in 100 mm dish each at a concentration of 2×10^6 cells per well. After 24 hours, all media in 100 mm dishes were removed and replaced with DMEM and RPMI-1640 media without addition of 10% FBS to inhibit migratability of cell lines so as to be in a starvation state. After 24 hours, 300 μg/mL of Matrigel was coated on the upper chamber of 24-Transwell. Afterwards, PANC-1 and AsPC-1 cell lines were cultured in the upper chamber at a concentration of 2×10^4 cells in a 100 mm dish, 10% FBS was added to the lower chamber for the experimental group, and 0% FBS was added to the lower chamber for the control group to identify migratability. 3% ACN, 200 μM control peptide (Ctrl-pep), MSLN-pep 25. For 50, 100, and 200 μM groups, each cell line was cultured together in the upper chamber of the 24-Transwell, and 10% FBS was treated in the lower chamber. Each group was cultured at 37° C. for 24 hours, and then the cells were photographed (original magnification, ×100) for each concentration of peptides. Cells were stained with crystal violet (0.1%), and Image J, a computer program, was used for quantitative evaluation.
as §1

[6] = in vitro; conditions: human
Protocol: Pancreatic cancer cell line AsPC-1 cells (5×10^3 cells/well in 96-well plates) were cultured in 1% serum medium with various concentrations of MSLN-pep peptide that specifically binds to mesothelin, NSSSVDK control peptide (Ctrl-pep), R7-KLA peptide that induces apoptosis, Abraxane, gemcitabine, and PBS at 37° C. for 24 and 48 hours. Afterwards, CCK-8 Kit (Dojindo, Kumamoto, Japan) reagent was treated, and a reaction was carried out at 37° C. for 2 hours to evaluate cytotoxicity.
To determine whether there is cytotoxicity when MSLN-pep binds specifically to mesothelin, the peptide was treated to the pancreatic cancer cell line AsPC-1 at concentrations of 0, 25, 50, 100, and 200 μM, and cell viability was checked for 24 and 48hours.

CC[C@H](C)[C@@H]1NC(=O)[C@H]([C@@H](C)O)NC(=O)[C@@H](N)CSSC[C@@H](C(=O)O)NC(=O)[C@H]([C@@H](C)O)NC(=O)[C@H](CC(C)C)NC(=O)[C@H](CO)NC(=O)[C@H](Cc2c[nH]c3ccccc23)NC(=O)[C@H](CC(C)C)NC1=O [MSLN-pep]
targeting to control organs (fluorescence microscopy of cryosections) ([1]; liver, lungs, kidneys): barely observed | targeting to tumor tissue (fluorescence microscopy of cryosections) ([1]; tumor tissue): observed at a higher level compared to the control | binding and internalization into cells [2]: internalization into cells occurs in proportion to the increase in the concentration | migratability compared to treatment of 10% FBS ([3]; 25 μM + 10% FBS): no difference in the migratability and invasiveness | migratability ([3]; 50, 100 and 200 μM + 10% FBS): suppressed with increasing concentrations of MSLN-pep | specific binding (immunofluorescence) [4]: bound only to the mesothelin-expressing portion | invasiveness compared to treatment of 10% FBS ([5]; 25 μM + 10% FBS): no difference in the migratability and invasiveness | invasiveness ([5]; 50, 100 and 200 μM + 10% FBS): suppressed with increasing concentrations of MSLN-pep | viability at 200 µM [6]: ~80%
